Broadly, the solubility is the dissolved amount per volume that the medium holds. Higher therefore signals a readily soluble substance.

This data set can be described thus: Solubility in water. The settings on record: water at 20° C. The data set is classed as physicochemical.

Molecule `CN/C(=N\[N+](=O)[O-])NCc1cnc(Cl)s1` [compound (II)] gave a solubility of at most 300 µg/mL.
